Measured values from US8841425B2, “Cytotoxic agents comprising new maytansinoids” (ImmunoGen, Inc., priority 2003, dated 2014).

What was measured:
[1] = tested on: human Ramos tumor xenografts; experiment: In vivo efficacy of huB4-DM4 against Ramos xenografts in SCID mice; set-up: species or system mouse
Protocol: The efficacy of huB-DM4 in vivo was determined using SCID mice bearing established human Ramos tumor xenografts. Ramos cells were injected subcutaneously and tumors were allowed to grow to an average size of 100 mm^3. Dosage is expressed as μg DM4 in the conjugate, which corresponds to an antibody dose of approximately 44 μg antibody per μg of DM4. Tumor volume was measured as an indication of treatment efficacy and mouse body weight was monitored to indicate toxicity due to treatment. […] Animals remain without measurable disease for about 35 days in the […] treatment group, and for more than 55 days in the two highest dose groups.

CD19 = target: T1, CD19 (Homo sapiens, UniProt P15391); experiment: Binding affinity of huB4 conjugate by flow cytometry; conditions: after conjugation
T1 sequence (P15391 20-556): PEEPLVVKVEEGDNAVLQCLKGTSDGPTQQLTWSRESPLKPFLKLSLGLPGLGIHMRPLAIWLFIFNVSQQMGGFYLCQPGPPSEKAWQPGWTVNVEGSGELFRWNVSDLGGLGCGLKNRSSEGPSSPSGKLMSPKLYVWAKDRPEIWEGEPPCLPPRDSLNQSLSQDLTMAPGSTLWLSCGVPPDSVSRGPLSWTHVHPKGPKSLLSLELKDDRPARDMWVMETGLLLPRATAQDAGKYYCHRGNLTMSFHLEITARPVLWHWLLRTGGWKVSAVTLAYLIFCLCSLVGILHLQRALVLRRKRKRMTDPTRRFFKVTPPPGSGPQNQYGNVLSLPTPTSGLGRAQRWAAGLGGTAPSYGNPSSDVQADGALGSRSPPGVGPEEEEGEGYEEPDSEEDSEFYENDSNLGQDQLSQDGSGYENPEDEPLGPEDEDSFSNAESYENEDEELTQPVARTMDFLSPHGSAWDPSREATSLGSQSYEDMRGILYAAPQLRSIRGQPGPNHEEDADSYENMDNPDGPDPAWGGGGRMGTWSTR
Protocol: A solution of huB4 antibody at a concentration of 20 mg/mL was incubated for 1.5 h with an 8-fold molar excess of SSNPB [sulfosuccinimidyl 4-(5′-nitro-2′-pyridyldithio)butyrate] in 50 mM potassium phosphate buffer, pH 6.5 containing 2 mM ethylenediaminetetraacetic acid (buffer A) with 5% dimethylacetamide. The modified antibody was purified by passage through a Sephadex G25 gel filtration column equilibrated in buffer A and the concentration of the purified antibody was determined spectrophotometrically using the extinction coefficient for the antibody at 280 nm (199,560 M^−1 cm^−1). The modified antibody was diluted to 8 mg/mL with buffer A and incubated for 3 h at ambient temperature with a 1.7-fold molar excess of DM4, which was added to the reaction mixture as a stock solution in dimethylacetamide (final concentration of dimethylacetamide was 3% v/v). […] The concentration of conjugate was determined spectrophotometrically using the know extinction coefficients for antibody (ε280 nm: 199,560 M^−1 cm^−1; ε252 nm: 67,850 M^−1 cm^−1) and DM4 (ε280 nm=5,700 M^−1 cm^−1, ε252 […]=26,790 M^−1 cm^−1). […] The amount of drug associated with the antibody that was not linked covalently (free drug) was determined by HPLC analysis and was approximately 2% of the total linked drug.

[2] = tested on: CD19-positive Ramos human tumor cells; experiment: MTT-based cytotoxicity of huB4-DM4, Ramos cells; type: cell-based; conditions: MTT-based assay, FIG. 12
Protocol: (§1) The cytotoxicity of huB4-DM4 toward CD19-expressing cells (Ramos) compared to a CD19-negative cell line (Colo 205) was tested using an MTT-based assay, where cell killing activity is determined by quantifying the number of viable cells that remain following treatment with conjugate. Viable cell number is determined by spectrophotometric quantitation following incubation of the cells with the vital dye MTT.

[3] = tested on: CD19-negative cell line (Colo 205); experiment: MTT-based cytotoxicity of huB4-DM4, Colo 205 cells; type: cell-based, human; conditions: MTT-based assay, non-target Colo 205 cells, FIG. 12
Protocol: as §1

huB4-DM4: huB4 (anti-CD19) antibody modified with SSNPB and linked to DM4, average of 4.0 DM4 molecules per antibody molecule
toxicity as judged by changes in body weight ([1]; SCID mice, single i.v. injection, FIG. 13b): very little if any toxicity | tumor response ([1]; SCID mice, single i.v. injection, doses above 50 μg/kg): complete regression of the tumors in all animals | time without measurable disease ([1]; single i.v. injection, 100 mg/kg treatment group): about 35 days | time without measurable disease ([1]; single i.v. injection, two highest dose groups): more than 55 days | anti-tumor activity ([1]; subcutaneous Ramos tumor model, FIG. 13a): high anti-tumor activity in a dose-dependent manner | tumor response ([1]; subcutaneous Ramos tumor model, doses that are non-toxic, FIG. 13a,b): Complete tumor regressions and cures | binding affinity compared with unmodified antibody (CD19): comparable to the unmodified antibody | cell killing activity toward Ramos cells [2]: potent cell killing activity | toxicity toward CD19-negative cells [3]: No significant toxicity
